For four molecules, IC50 results are on record in US20260042764A1, “COMPOSITIONS AND METHODS FOR INHIBITION OF KRAS” (TheRas, Inc., priority 2022, published 2026).

In assay [1] the test system is SW1900 cells (KRAS G12D). As to the kind of experiment: Cell-based pERK HTRF assay in SW1900 cells (Biological Example 5). As for the experimental part: (§1) Biological Example 5: Cell-based PERK HTRF assay in AsPC-1, SW1900, HPAC, Capan-2, RKN, H358, HCT116, KP-2, H1573, A549, MKN1, and HT1080 cells
(§2) The inhibition of ERK phosphorylation, as measured using the HTRF Advanced Phospho-ERK 1/2 (Thr202/Tyr204) Detection Assay kit (Perkin Elmer), was used to determine the effectiveness of test compounds in disrupting KRAS-driven protein/effector signaling in cells.
(§3) On day 1, cells were seeded into 96-well plates at 2.5×10^4 cells/well in 100 μL of complete growth media supplemented with 10% fetal bovine serum (FBS) and incubated at 37° C., in the presence of 5% CO2.
(§4) On day 2, cells were treated with compounds diluted in DMSO at 0.25% final DMSO concentration. Compounds were dosed in a 9-point concentration curve with three-fold dilution between concentrations. Cells were incubated in the presence of compound for two hours at 37° C. Following this treatment period, cells were harvested by aspirating the media, adding 40 μL of kit-supplied 1x lysis buffer per well, and shaking for 30 minutes at 250 rpm at room temperature.
(§5) Following cell lysis, samples were homogenized by pipetting up and down twenty times and 16 μL of cell lysate per well was transferred from the 96-well cell culture plate to two wells of a 384-well detection plate. A complete detection buffer was prepared by diluting D2 and Eu Cryptate antibodies 1:20 in kit-provided detection solution, 4 μL of complete detection buffer was then added to each well with lysate. Plates were incubated with gentle rocking for 24 hours at 4° C.
(§6) Following this incubation period, plates were centrifuged at 500×g for one minute and analyzed on a CLARIOstar plate reader. Data was imported into Microsoft Excel and the signal from the 665 nm channel was divided by the signal from the 620 nm channel. % pERK was calculated as: […]
(§7) Data was imported to the Prism software package (Graphpad) and EC50 values were calculated using the log (inhibitor) vs, response—variable slopc (Four parameters) model.

Assay [2] deals with Capan-2 cells (KRAS G12V). Kind of assay: Cell-based pERK HTRF assay in Capan-2 cells (Biological Example 5). As for the experimental part:
as §1, §2, §3, §4, §5, §6, §7

Assay [3] deals with HCT116 cells (KRAS G13D). As to the kind of experiment: Cell-based pERK HTRF assay in HCT116 cells (Biological Example 5). As for the experimental part: as §1, §2, §3, §4, §5, §6, §7
The subject of assay [4] is H1573 cells (KRAS G12A). Kind of assay: Cell-based pERK HTRF assay in H1573 cells (Biological Example 5). As for the experimental part: as §1, §2, §3, §4, §5, §6, §7
Assay [5] has as its system A549 cells (KRAS G12S). Kind of assay: Cell-based pERK HTRF assay in A549 cells (Biological Example 5). As for the experimental part:
as §1, §2, §3, §4, §5, §6, §7

Assay [6] concerns HT1080 cells (NRAS). Kind of assay: Cell-based pERK HTRF assay in HT1080 cells (Biological Example 5). As for the experimental part:
as §1, §2, §3, §4, §5, §6, §7

In assay [7] the test system is SW1900 cells (KRAS G12D). As to the kind of experiment: 3D Cell viability assay in SW1900 cells (Biological Example 6). In kind it is cell-based. The following applies: Homo sapiens; SW1990 (text: SW1900, KRAS G12D) spheroids, 72 hours. A digest of the protocol:
(§8)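 Tumour spheroids, grown 48 h from 1000 seeded cells in ultra-low attachment wells, receive compound at nine three-fold-spaced concentrations (final DMSO 0.25%) for 72 h at 37 °C, 5% CO2. Viability is measured by luminescence after CTG 3D lysis.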

Assay [8] has as its system Capan-2 cells (KRAS G12V). As to the kind of experiment: 3D Cell viability assay in Capan-2 cells (Biological Example 6). The class given is cell-based. The following applies: Capan-2 (KRAS G12V) spheroids, 72 hours. As for the experimental part: (§9) Biological Example 6: 3D Cell viability assay in AsPC-1, SW1900, HPAC, Capan-2, RKN, H358, HCT116, KP-2, H1573, A549, MKN1, and HT1080 cells
(§10) The inhibition of cellular viability as a result of test compound treatment in a spheroid assay was measured using the CellTiter-Glow 3D Cell Viability Assay (Promega).
(§11) On Day 1, 1000 cells per well were seeded in 150 μL of complete growth media supplemented with 10% fetal bovine serum (FBS) and incubated at 37° C., in the presence of 5% CO2 in 96-well ultra-low attachment microplates (Corning) for 48 hours undisturbed to allow spheroids to form.
(§12) Following spheroid formation, cells were treated with compounds diluted in DMSO at 0.25% final DMSO concentration. Compounds were dosed in a 9-point concentration curve with three-fold dilution between concentrations. Cells were incubated in the presence of compound for 72 hours at 37° C., in the presence of 5% CO2.
(§13) Following this incubation period, the kit-provided CTG reagent was allowed to equilibrate for 30 minutes at room temperature, 150 μL of equilibrated CTG reagent was added to each well, and the plate was sealed before shaking at 250 rpm for 10 minutes at room temperature to lyse the cells, 150 μL of lysate per well was transferred to a 96-well plate and luminescence was read on a CLARIOstar plate reader.
(§14) Data was imported into the Prism software package (Graphpad) and EC50 values were calculated using the log (inhibitor) vs, response—variable slope (Four parameters) model.

The subject of assay [9] is H358 cells (KRAS G12C). Kind of assay: 3D Cell viability assay in H358 cells (Biological Example 6). The class given is cell-based. The conditions noted are these: H358 (KRAS G12C) spheroids, 72 hours. The method in brief: as §8
Assay [10] deals with HCT116 cells (KRAS G13D). As to the kind of experiment: 3D Cell viability assay in HCT116 cells (Biological Example 6). In kind it is cell-based. The conditions noted are these: HCT116 (KRAS G13D) spheroids, 72 hours. A digest of the protocol: as §8
Assay [11] concerns H1573 cells (KRAS G12A). Kind of assay: 3D Cell viability assay in H1573 cells (Biological Example 6). The conditions noted are these: H1573 (KRAS G12A) spheroids, 72 hours. The class given is cell-based. As for the experimental part: as §9, §10, §11, §12, §13, §14
For assay [12], the system named is A549 cells (KRAS G12S). Kind of assay: 3D Cell viability assay in A549 cells (Biological Example 6). In kind it is cell-based. The following applies: A549 (KRAS G12S) spheroids, 72 hours. As for the experimental part:
as §9, §10, §11, §12, §13, §14

Assay [13] concerns MKN1 cells (KRAS amplification). As to the kind of experiment: 3D Cell viability assay in MKN1 cells (Biological Example 6). In kind it is cell-based. The following applies: MKN (MKN1, KRAS amplification) spheroids, 72 hours. As for the experimental part:
as §9, §10, §11, §12, §13, §14

The test system of assay [14] is HT1080 cells (NRAS). Kind of assay: 3D Cell viability assay in HT1080 cells (Biological Example 6). The conditions noted are these: HT1080 (NRAS) spheroids, 72 hours. The class given is cell-based. A digest of the protocol: as §8
Assay [15] deals with RKN cells (KRAS G12V). As to the kind of experiment: 3D Cell viability assay in RKN cells (Biological Example 6). In kind it is cell-based. The following applies: RKN (KRAS G12V) spheroids, 72 hours. As for the experimental part:
as §9, §10, §11, §12, §13, §14

Assay [16] deals with KP-2 cells (KRAS G12R). Kind of assay: Cell-based pERK HTRF assay in KP-2 cells (Biological Example 5). The following applies: KP-2 (KRAS G12R) cells. As for the experimental part: as §1, §2, §3, §4, §5, §6, §7
[17] abbreviates: Homo sapiens, SW1990, SW1990 cells (text: SW1900, KRAS G12D).
[18] abbreviates: Homo sapiens, Capan-2, Capan-2 (KRAS G12V) cells.

Bounds are passed on as bounds.

For the molecule `CC(=O)N1CC[C@@H](N(C)c2nc(OC[C@@]34CCCN3C[C@H](F)C4)nc3c(F)c(-c4ccc(F)c5sc(N)c(C#N)c45)c(Cl)cc23)[C@H]1C` [Compound 398], the IC50 is ≤ 100 nM in [1] (setting [17]); ≤ 100 nM in assay [2] (setting [18]); ≤ 100 nM in [3] (Homo sapiens, HCT-116); ≤ 100 nM in [4] (Homo sapiens, NCI-H1573); ≤ 100 nM in assay [5] (Homo sapiens); > 1000 nM in assay [6] (Homo sapiens, HT-1080). The IC50 in [7] is 100 to 1000 nM; in assay [8] (Homo sapiens), 100 to 1000 nM; in assay [9] (Homo sapiens, NCI-H358), ≤ 100 nM; in [10] (Homo sapiens, HCT-116) it was 100 to 1000 nM; in assay [11] (Homo sapiens, NCI-H1573) it was ≤ 100 nM; in assay [12] (Homo sapiens) it was ≤ 100 nM. Moreover, the IC50 was ≤ 100 nM in [13] (Homo sapiens, MKN-1) and > 1000 nM in assay [14] (Homo sapiens, HT-1080).
For `N#Cc1c(N)sc2c(F)ccc(-c3c(C(F)(F)F)cc4c(N5CCOCC5)nc(OC[C@@]56CCCN5C[C@H](F)C6)nc4c3F)c12` (single isomer, unassigned) [Compound 198], the IC50 is ≤ 100 nM in assay [1] (setting [17]); ≤ 100 nM in assay [2] (setting [18]); ≤ 100 nM in assay [3] (Homo sapiens, HCT-116); ≤ 100 nM in [4] (Homo sapiens, NCI-H1573); 100 to 1000 nM in assay [5] (Homo sapiens); > 1000 nM in assay [6] (Homo sapiens, HT-1080). In addition, the IC50 in assay [8] (Homo sapiens) is ≤ 100 nM; in assay [9] (Homo sapiens, NCI-H358) it was ≤ 100 nM; in [10] (Homo sapiens, HCT-116) it was ≤ 100 nM; in assay [11] (Homo sapiens, NCI-H1573), ≤ 100 nM; in assay [12] (Homo sapiens), ≤ 100 nM; in assay [13] (Homo sapiens, MKN-1), ≤ 100 nM. Moreover, the IC50 in [14] (Homo sapiens, HT-1080) is > 1000 nM.
With `CN(c1nc(OC[C@@]23CCCN2C[C@H](F)C3)nc2c(F)c(-c3ccc(F)c4sc(N)c(C#N)c34)c(C(F)(F)F)cc12)[C@H]1C[C@@H](O)C1` [Compound 19, 2-amino-7-fluoro-4-((S)-8-fluoro-2-(((2R,7aS)-2-fluorotetrahydro-1H-pyrrolizin-7a(5H)-yl)methoxy)-4-(((1s,3R)-3-hydroxycyclobutyl)(methyl)amino)-6-(trifluoromethyl)quinazolin-7-yl)benzo[b]thiophene-3-carbonitrile], the 50% inhibitory concentration (IC50) is ≤ 100 nM in assay [1] (SW1990 cells (text: SW1900, KRAS G12D)); ≤ 100 nM in [2] (Capan-2 (KRAS G12V) cells); ≤ 100 nM in [3]; ≤ 100 nM in [4]; 100 to 1000 nM in assay [5]; > 1000 nM in assay [6]. Moreover, the IC50 in assay [8] is 100 to 1000 nM; in [15] it was ≤ 100 nM; in [9] it was ≤ 100 nM; in [10], ≤ 100 nM; in [11], ≤ 100 nM; in assay [12], 100 to 1000 nM. In addition, the values for the IC50 in assay [13] and in assay [14] were ≤ 100 nM and > 1000 nM, respectively.
On to `CC(=O)N1CC[C@@H](N(C)c2nc(OC[C@@]34CCCN3C[C@H](F)C4)nc3c(F)c(-c4ccc(F)c5sc(N)c(C#N)c45)c(C(F)(F)F)cc23)[C@H]1C` (single isomer, unassigned) [Compound 193], for which the IC50 in [1] (setting [17]) was ≤ 100 nM; in [2] (setting [18]) it was ≤ 100 nM; in [3] (Homo sapiens, HCT-116), ≤ 100 nM; in [16], ≤ 100 nM; in assay [4] (Homo sapiens, NCI-H1573), ≤ 100 nM; in [5] (Homo sapiens), ≤ 100 nM. In addition, the IC50 in [6] (Homo sapiens, HT-1080) was > 1000 nM; in assay [8] (Homo sapiens), ≤ 100 nM; in assay [9] (Homo sapiens, NCI-H358), ≤ 100 nM; in assay [10] (Homo sapiens, HCT-116), ≤ 100 nM; in [11] (Homo sapiens, NCI-H1573), ≤ 100 nM; in [12] (Homo sapiens), ≤ 100 nM. Further, the IC50 was ≤ 100 nM in assay [13] (Homo sapiens, MKN-1) and > 1000 nM in assay [14] (Homo sapiens, HT-1080).
